Laboratory results published in patent US9200005B2, “Inhibitor compounds of phosphodiesterase type 10A” (AbbVie Deutschland GmbH & Co. KG, priority 2013, dated 2015).

Columns and labels:
[1] = target: PDE10A (UniProt Q9Y233); assay: Measurement of PDE activity (HTRF cAMP kit, recombinant PDE10A); type: biochemical, human, rat and mouse; conditions: substrate 20 nM, 60 minutes at 29° C.
[2] = Determination of the microsomal half-life / microsomal clearance, human liver microsomes; type: in vitro ADME; conditions: 0.5 μM test substance, 0.25 mg of microsomal protein/mL, NADPH, 37° C.
Method in brief: (§1)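 Compound (0.5 μM) was preincubated 5 min at 37 °C with rat or human liver microsomes (0.25 mg protein/mL) in 0.05 M phosphate pH 7.4, and NADPH (1 mg/mL) was then added. Samples taken at 0-30 min and quenched with acetonitrile were analysed by MS/MS. T½ was derived assuming first-order decay, and clearance […] was calculated from T½ and protein content.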

[3] = Determination of the microsomal half-life / microsomal clearance, rat liver microsomes; type: in vitro ADME; conditions: 0.5 μM test substance, 0.25 mg of microsomal protein/mL, NADPH, 37° C.
Method in brief: as §1

[4] = system: rats; conditions: cited from earlier work
[5] = system: rats; conditions: amphetamine (WO 03/093499); cited from earlier work
[6] = system: rats; conditions: PCP (WO 03/093499); cited from earlier work

| Structure (SMILES) | IC50 [1] | Human mCl [2] | Rat mCl [3] | catalepsy on its own ([4]; alone (WO 03/093499)) | cataleptic effect of the D2 receptor antagonist haloperidol ([4]; with haloperidol (WO 03/093499)) | reduction of amphetamine-induced hyperactivity [5] | hyperactivity in rats induced by PCP [6] |
| --- | --- | --- | --- | --- | --- | --- | --- |
| O=c1c2c(-c3ccncc3)csc2c(-c2ccncc2)nn1CC(F)(F)F [Example 131, 3,7-di(pyridin-4-yl)-5-(2,2,2-trifluoroethyl)thieno[2,3-d]pyridazin-4(5H)-one] | < 100 nM | ++ (++: <100 μl min^−1 mg^−1) | ++ (++: <100 μl min^−1 mg^−1) |  |  |  |  |
| CC(C)n1nc(-c2ccncc2)c2scc(-c3ccncc3)c2c1=O [Example 135, 5-(propan-2-yl)-3,7-di(pyridin-4-yl)thieno[2,3-d]pyridazin-4(5H)-one] | 200 to 500 nM | ++ (++: <100 μl min^−1 mg^−1) | + (+: 100-220 μl min^−1 mg^−1) |  |  |  |  |
| CCn1nc(-c2ccncc2)c2scc(-c3ccncc3)c2c1=O [Example 136, 5-ethyl-3,7-di(pyridin-4-yl)thieno[2,3-d]pyridazin-4(5H)-one] | < 100 nM | ++ (++: <100 μl min^−1 mg^−1) | ++ (++: <100 μl min^−1 mg^−1) |  |  |  |  |
| CCCn1nc(-c2ccncc2)c2scc(-c3ccncc3)c2c1=O [Example 139, 5-propyl-3,7-di(pyridin-4-yl)thieno[2,3-d]pyridazin-4(5H)-one] | 100 to 200 nM | + (+: 100-220 μl min^−1 mg^−1) | ++ (++: <100 μl min^−1 mg^−1) |  |  |  |  |
| CCn1nc(-c2ccncc2)c2scc(-c3cncnc3)c2c1=O [Example 145, 5-ethyl-7-(pyridin-4-yl)-3-(pyrimidin-5-yl)thieno[2,3-d]pyridazin-4(5H)-one] | < 100 nM | ++ (++: <100 μl min^−1 mg^−1) | ++ (++: <100 μl min^−1 mg^−1) |  |  |  |  |
| O=c1c2c(-c3cncnc3)csc2c(-c2ccncc2)nn1CC1CC1 [Example 146, 5-(cyclopropylmethyl)-7-(pyridin-4-yl)-3-(pyrimidin-5-yl)thieno[2,3-d]pyridazin-4(5H)-one] | < 100 nM | ++ (++: <100 μl min^−1 mg^−1) | ++ (++: <100 μl min^−1 mg^−1) |  |  |  |  |
| Cn1nc(OCc2cccnc2)c2scc(-c3ccncc3)c2c1=O [Example 147, 5-methyl-3-(pyridin-4-yl)-7-(pyridin-3-ylmethoxy)thieno[2,3-d]pyridazin-4(5H)-one] | < 100 nM | + (+: 100-220 μl min^−1 mg^−1) | + (+: 100-220 μl min^−1 mg^−1) |  |  |  |  |
| COc1ccc(Cc2nccc3cc(OC)c(OC)cc23)cc1OC [Papaverine, papaverine] |  |  |  | did not cause catalepsy | potentiated | insignificant | reduced |
